Test results taken from US7067697B2, “Cationic liposomes for gene transfer” (priority 1998, dated 2006).
Read-outs that look alike come from different tables or passages of the source.

Assays:
[1] = system: CD-1 mouse lungs; test: In vivo transfection of CD-1 mice with i.v. lipoplex (pCMV-Luc), luciferase activity assay in organs; details: for transfection level versus trimethylammonium counterparts (DOTMA, DOTAP): 4:1 +/− charge ratio, pure cationic lipid liposomes; for Relative Activity of MMET Analogues-Cholesterol Liposomes: cationic lipid:cholesterol 1:1 mol/mol, in vivo transfection to the lungs, MMET = 100; for rank order of transfection activity in lungs: liposomes of pure cationic lipid, charge ratio 8:1 to 16:1, 12 hours after i.v.
Procedure: Cationic liposomes of formulas (I-VI) were prepared from pure cationic lipids or as equimolar mixtures of a cationic lipid and neutral lipids, such as DOPE, or cholesterol, using extrusion or sonication methods. One hundred μmoles of a cationic lipid or one hundred μmoles each of a cationic lipid and a selected neutral lipid were dissolved in a round bottom flask. The organic solvent was then evaporated under vacuum at 45° C. to form a thin lipid film. The residual solvent was further removed under high vacuum for one hour. The lipid film was then suspended with 10 ml of endotoxin-free distilled water (Gibco, BRL, MD) at room temperature for one hour, and subsequently extruded using 0.8 μm, 0.4 μm and 0.2 μm pore size filters. The extruded multilammelar liposomes have sizes of 850 nm, 350 nm and 280 nm in diameter, respectively. Some of the extruded liposomes were further sonicated in a bath sonicator for 2-5 minutes to form unilamellar liposomes with a size of about 100 nm in diameter. The size of the liposomes were measured by 90° laser dynamic light scattering using a Zetamaster submicron particle analyzer.
(§1) For transfection in vivo, normal CD-1 mouse was used as a model. The charge ration of lipid to DNA (±) was used throughout the study, assuming that 25 μg of DNA contains about 75 nmoles of negative charges, and one nmole of quaternary ammonium cationic lipid contains one nmole of positive charges. To prepare lipoplex for transfection, 25 μg or an indicated amounts of pCMV DNA was diluted in 100 μl of distilled water (endotoxin screened, Gibco). The diluted DNA solution was added to a polystyrene tube containing an indicated amount of cationic liposomes in 100 μl and was mixed immediately. The complexes were kept at + room temperature for 30 minutes before being administered to the animals via tail vein.
Luciferase activity was measured in various organs, including lung, liver spleen, and heart from transfected animals, using a luciferase activity assay kit (Promega, Madison, Wis.) and a luminometer (Moonlight 3010). Organs were collected from the animals at 12 hours post transfection or at an indicated time after injection of lipoplex. About 0.2 g of liver were removed from the animal. One ml of 1× lysis buffer (Promega, Madison, Wis.), supplemented with 0.1% Triton-X100 was added to collected organs. Each organ was homogenized for 10-20 seconds using a handheld homogenizer (Dremel, Racine, Wis.) as it top speed (about 30,000 rpm). The samples were centrifuged in a microcentrifuge for three minutes. A 10 μL of the cleared supernatant, containing approximately 100-200 μg proteins, was measured for luciferase activity. Protein content in the supernatants was determined with BioRad dye reagent method, using albumin as a standard. The luciferase activities were normalized to the relative light unit per milligram of extracted protein.

[2] = system: CD-1 mice; assay type: in vivo; details: for safety of lipoplex for CD-1 mice: 25 μg of DNA, pure cationic lipid liposomes, 1:16 charge ratio; for Number of animals died per group (n = 3): CD-1 mice (20 g), charge ratio 16:1+/−, counted after 48 h; for relative toxicity of liposome compositions: escalating doses of lipoplexes, groups of three animals, first 48 hours
Procedure: as §1
Table 2 below lists the number of animals that expired during the first 48 hours of the experiment period, when escalating doses of the lipoplexes were given to a group of three animals. Lipoplex containing 25 μg of DNA and DOTMA or MMET liposomes at 1:16 charge ratio or with a mixture of cholesterol-DOTMA, or cholesterol-MMET at 1:4 charge ratios appear to be quite safe for CD-1 mice. Higher charge ratios of lipid to DNA and high doses of lipoplex were required to reach a lethal dose. […] In general, MMET containing liposomes were less toxic than the ones containing DOTMA.

[3] = system: CD-1 mice; details: mouse, in vivo

CCCCCCCC/C=C\CCCCCCCC(=O)OCC(C[N+]1(C)CCOCC1)OC(=O)CCCCCCC/C=C\CCCCCCCC (centres unmarked) [MMES, N-3-methyl-1,2-dioleoyl-3-morpholinium propane]
transfection level versus trimethylammonium counterparts (DOTMA, DOTAP) ([1]; lungs): higher levels of transfection
Relative Activity of MMET Analogues-Cholesterol Liposomes [1]: 48.72
rank order of transfection activity in lungs [1]: MMET≧DOTMA>MMES>DOTAP>LADOP

N-3-methyl-1,2-dioleyl-3-morpholinium propane chloride [MMET]
safety of lipoplex for CD-1 mice [2]: quite safe
Number of animals died per group (n = 3) ([2]; DNA dosage 25 ug): (0)
Number of animals died per group (n = 3) ([2]; DNA dosage 30 ug): (0)
Number of animals died per group (n = 3) ([2]; DNA dosage 45 ug): (1)
relative toxicity of liposome compositions [2]: somewhere in between
transfection level versus trimethylammonium counterparts (DOTMA, DOTAP) ([1]; lungs): higher levels of transfection
Relative Activity of MMET Analogues-Cholesterol Liposomes [1]: 100
transfection activity versus prior art liposomes composed of DOTMA and/or DOTAP or DOTMA-cholesterol ([1]; i.v. to mice, luciferase after 12 hours): much higher
rank order of transfection activity in lungs [1]: MMET≧DOTMA>MMES>DOTAP>LADOP

CCCCCCCC/C=C\CCCCCCCCOCC(CN1CCOCC1)OCCCCCCCC/C=C\CCCCCCCC (centres unmarked) [dioleyl morpholino propanediol, 1,2-dioleyl-N-3-morpholino propane]
in vivo transfection activity of MMET analogues (in words) ([1]; formulated with cholesterol at 1:1 mole ratios, lungs): only weak activity

CCCCCCCC/C=C\CCCCCCCC(=O)OCC(C[N+](C)(C)C)OC(=O)CCCCCCC/C=C\CCCCCCCC (centres unmarked) [DOTAP, 1,2-dioleoyl-3-trimethylammonium propane, reference compound]
Relative Activity of MMET Analogues-Cholesterol Liposomes [1]: 28.14
rank order of transfection activity in lungs [1]: MMET≧DOTMA>MMES>DOTAP>LADOP

CCCCCCCC/C=C\CCCCCCCC(=O)OCC(CNC(=O)[C@@H](N)CCCCN)OC(=O)CCCCCCC/C=C\CCCCCCCC (stereo partly drawn) [LADOP, N-[(2,3-dioleoyloxy)propyl]-L-lysinamide]
tolerance of repeated intravenous doses [3]: tolerated repeated intravenous doses of DNA/LADOP complex well
duration of transgene expression in lungs (disappearing by) ([1]; liposome/DNA complex delivered intravenously, after transfection): ≤ 48 h
rank order of transfection activity in lungs [1]: MMET≧DOTMA>MMES>DOTAP>LADOP
gene expression after second intravenous transfection ([1]; second injection at 48 hours after the first injection): almost identical gene expression and duration

CCCCCCCC/C=C\CCCCCCCC[N+]1(CCCCCCCC/C=C\CCCCCCCC)CCOCC1.[Cl-] [DOMor, N,N-dioleylmorpholinium chloride]
Relative Activity of MMET Analogues-Cholesterol Liposomes [1]: 76.09

CCCCCCCC/C=C\CCCCCCCCOCC(C[N+](C)(C)C)OCCCCCCCC/C=C\CCCCCCCC.[Cl-] (centres unmarked) [DOTMA, 1,2,-dioleyl-3-N,N,N-trimethyl amino propane chloride, reference compound]
safety of lipoplex for CD-1 mice [2]: quite safe
Number of animals died per group (n = 3) ([2]; DNA dosage 25 ug): (0)
Number of animals died per group (n = 3) ([2]; DNA dosage 30 ug): (2)
Number of animals died per group (n = 3) ([2]; DNA dosage 45 ug): (3)
relative toxicity of liposome compositions [2]: somewhere in between
rank order of transfection activity in lungs [1]: MMET≧DOTMA>MMES>DOTAP>LADOP

CCCCCCCC/C=C\CCCCCCCCOCC[N+]1(CCOCCCCCCCC/C=C\CCCCCCCC)CCOCC1.[Cl-] [DODHEM, N,N-di-(2-oleyloxyethyl)-mopholinium chloride]
Relative Activity of MMET Analogues-Cholesterol Liposomes [1]: 74.54

CCCCCCCC/C=C\CCCCCCCCOCC(C[N+]1(C)CCCC1)OCCCCCCCC/C=C\CCCCCCCC (centres unmarked) [MPET, -3-methyl-1,2-dioleyl-3-pyrrolinium propane]
Relative Activity of MMET Analogues-Cholesterol Liposomes [1]: 55.49

CCCCCCCC/C=C\CCCCCCCC(=O)OCC(C[N+]1(C)CCCC1)OC(=O)CCCCCCC/C=C\CCCCCCCC (centres unmarked) [MPES, N-3-methyl-1,2-dioleoul-3-pyrrolinum propane]
Relative Activity of MMET Analogues-Cholesterol Liposomes [1]: 1.87
